Results published in PMC9139161, “Phenolics from Chrozophora oblongifolia Aerial Parts as Inhibitors of α-Glucosidases and Advanced Glycation End Products: In-Vitro Assessment, Molecular Docking and Dynamics Studies” (Biology, 2022).
Values belong to the molecule of their own block, whether it stands above or below them.

What was measured:
DPPH assay = details: read-out: DPPH assay IC50 (Mean ± SE)
Experimental: Isolated compounds were prepared in final concentrations of 1000 µM in DMSO. Compounds that exceeded 50% inhibition at this concentration were serially diluted to determine their IC50. Ascorbic acid was used as a positive control, prepared in a concentration of 100 µM in water from which six concentrations were prepared to calculate its IC50. The method is based on the reduction of free radical of 2,2-diphenyl-1-picrylhydrazyl (DPPH). Briefly, in a 96-well plate, 20 μL of the isolated compound was incubated for 20 min in the absence of light with 180 μL of DPPH reagent (100 μM). The reduction of intensity in the color of DPPH was assessed on a microplate reader (TECAN, Männedorf, Switzerland) at 540 nm (Supplementary Table S2).

ABTS assay = details: concentration-response curve
Experimental: DMSO was used for the preparation of 0.5 mg/mL concentrations of isolated compounds, meanwhile, the positive control (ascorbic acid) was used to prepare a stock solution of 1000 µM in water; from which seven concentrations were prepared including 7.812, 15.625, 31.25, 62.5, 125, 250 and 500 µM to construct the concentration-response curve (Supplementary Data Figure S2). The activity of the tested compounds to scavenge the free radicals of ABTS (2,2′-azino-bis (3-ethylbenzothiazoline-6-sulfonic acid)) was assessed according to the methodology reported previously with slight modifications.
Five milliliters of aqueous solution (7 mM) of ABTS was mixed with 88 µL potassium persulfate (140 mM) and the mixture was kept in the dark for 16 h to produce ABTS radical cation (ABTS^•+). Then methanol was added to the reaction mixture to dilute the formed ABTS^•+ solution to an absorbance of 0.700 (1:50) at 690 nm.
Ten microliters of the tested compound were incubated with 190 μL of ABTS^•+ solution in a 96-well plate for thirty minutes in the dark and the absorbance was measured later using a microplate reader (TECAN, Männedorf, Switzerland) at 690 nm. Data are represented as means (n = 3) ± SD and the antioxidant effect of the tested compounds was calculated as µM Ascorbic acid equivalents by substitution in the linear regression equation (Supplementary Figure S2).

[1] = Metal chelation assay (ferrozine); details: concentration-response curve
Experimental: Isolated compounds were dissolved in DMSO to prepare a concentration of 0.5 mg/mL, meanwhile, the positive control (EDTA) was used to prepare a stock solution of 100 µM in water; from which six concentrations were prepared including 5, 10, 20, 40, 50 and 80 µM to construct the dose-response curve. The assay was carried out as previously reported, with minor modifications. Briefly, in 96 wells plate (n = 6) 20 µL of the freshly prepared ferrous sulfate (0.3 mM) was mixed with 50 µL of the tested compound and incubated with 30 µL of ferrozine (0.8 mM) for 10 min at room temperature. Finally, reduction in color intensity was assessed at 540 nm using a microplate reader (Tecan, San Jose, CA, USA). Data are represented as means (n = 3) ± SD and the antioxidant effect of the extracts was calculated as µM EDTA equivalents by substitution in the linear regression equation (Supplementary Figure S4).

[2] = test system: advanced glycation end products (AGEs) formation, BSA-methylglyoxal model; experiment: AGEs formation inhibition, BSA-methylglyoxal assay; type: biochemical; details: AGEs fluorescence, 72 h, 37 °C; read-out: BSA-Methylglyoxal Model IC50 (Mean ± SE)
Experimental: (§1) The isolated compounds were prepared at final concentrations of 500 µM in DMSO in the BSA-fructose assay, and 1000 µM in all other AGEs assays. Compounds that exceeded 50% inhibition at this concentration were serially diluted to determine their IC50. All tests were conducted using quercetin (positive control).
AGEs inhibitory activity of the isolated compounds was determined according to the reported procedures with slight modification. Briefly, in black 96-microwell plates, samples were incubated for 72 h at 37 °C in the dark with bovine serum albumin (BSA, 50 mg/mL) (in 200 mM phosphate buffer, pH 7.4, with 0.02% sodium azide) and methyl-glyoxal (53.3 mM, in distilled water), (1:1:1 v/v/v). On a microplate reader (Fluostar Omega/BMG Labtech/Germany), fluorescent AGEs were detected using excitation and emission wavelengths of 355 nm and 460 nm, respectively. Triplicates of all experiments were performed.

[3] = test system: advanced glycation end products (AGEs) formation, arginine-methylglyoxal model; experiment: AGEs formation inhibition, arginine-methylglyoxal assay; type: biochemical; details: AGEs fluorescence, 72 h, 37 °C; read-out: Arginine-Methylglyoxal Model IC50 (Mean ± SE)
Experimental: as §1
The determination of the inhibitory effect of the isolated compounds on the formation of AGEs in the arginine methylglyoxal model was used as described previously with slight modification. Briefly, in black 96-microwell plates, a sample was incubated for 72 h at 37 °C in the dark with methylglyoxal (53.3 mM, in distilled water) and 106.6 mM arginine (in 200 mM phosphate buffer, pH 7.4, with 0.02% sodium azide), (1:1:1 v/v/v). On a microplate reader (Fluostar Omega/BMG Labtech/Germany), fluorescent AGEs were detected using excitation and emission wavelengths of 355 nm and 460 nm, respectively. Triplicates of all experiments were performed.

[4] = test system: advanced glycation end products (AGEs) formation, BSA-fructose model; experiment: AGEs formation inhibition, BSA-fructose assay; type: biochemical; details: AGEs fluorescence, 72 h, 37 °C; read-out: BSA-Fructose Model IC50 (Mean ± SE)
Experimental: as §1
According to the previous report, the inhibition test for AGE formation was assessed using the BSA-fructose model. Briefly, BSA (50 mg/mL) and fructose (1.25 M) (in 200 mM phosphate buffer, pH 7.4, with 0.02% sodium azide) were incubated with Sample/blank in the dark for 72 h at 37 °C, (1:1:1 by volume). On a microplate reader (Fluostar Omega BMG Labtech, Ortenberg, Germany), fluorescent AGEs were detected using excitation and emission wavelengths of 355 nm and 460 nm, respectively. Triplicates of all experiments were performed, and the percentage of AGEs inhibition was calculated.

IC50 (DPPH assay): 28 µM
Structure (SMILES): O=C1O[C@H]([C@@H](O)CO)C(O)=C1O [ascorbic acid, Ascorbic acid]
ABTS % inhibition (ABTS assay; 7.8125 µM): 2.8930%
ABTS % inhibition (ABTS assay; 15.625 µM): 3.7803%
ABTS % inhibition (ABTS assay; 31.25 µM): 5.5156%
ABTS % inhibition (ABTS assay; 62.5 µM): 9.7291%
ABTS % inhibition (ABTS assay; 125 µM): 16.88%
ABTS % inhibition (ABTS assay; 250 µM): 33.5451%
ABTS % inhibition (ABTS assay; 500 µM): 62.86%

Structure (SMILES): O=C(O)CN(CCN(CC(=O)O)CC(=O)O)CC(=O)O [EDTA, reference compound]
Metal chelation % inhibition ([1]; 5 µM): 8.429%
Metal chelation % inhibition ([1]; 10 µM): 13.464%
Metal chelation % inhibition ([1]; 20 µM): 19.624%
Metal chelation % inhibition ([1]; 40 µM): 41.866%
Metal chelation % inhibition ([1]; 50 µM): 48.303%
Metal chelation % inhibition ([1]; 80 µM): 72.307%

IC50 [2]: 941 µM
IC50 [3]: 536 µM
IC50 [4]: 62 µM
Structure (SMILES): O=c1c(O)c(-c2ccc(O)c(O)c2)oc2cc(O)cc(O)c12 [Quercetin, quercetin, reference compound]
